From US8507533B2, “Glucagon receptor modulators” (Pfizer Inc., priority 2011, dated 2013)

Assays:
human glucagon receptor [1] = target: T1, human glucagon receptor (Homo sapiens (Human), UniProt P47871); experiment: Human Glucagon SPA Assay (binding of [125I]Glucagon-Cex); conditions: membrane from chem-1 cells stably transfected with the human glucagon receptor, Ki by Cheng-Prusoff equation
human glucagon receptor [2] = target: T1, human glucagon receptor; experiment: Glucagon cAMP Assay (Cisbio cAMP detection); format: cell-based; conditions: CHOK1 cells stably transfected with the human glucagon receptor; block of glucagon induced cAMP production; Kb by modified Cheng-Prusoff equation

T1 sequence (P47871 26-477): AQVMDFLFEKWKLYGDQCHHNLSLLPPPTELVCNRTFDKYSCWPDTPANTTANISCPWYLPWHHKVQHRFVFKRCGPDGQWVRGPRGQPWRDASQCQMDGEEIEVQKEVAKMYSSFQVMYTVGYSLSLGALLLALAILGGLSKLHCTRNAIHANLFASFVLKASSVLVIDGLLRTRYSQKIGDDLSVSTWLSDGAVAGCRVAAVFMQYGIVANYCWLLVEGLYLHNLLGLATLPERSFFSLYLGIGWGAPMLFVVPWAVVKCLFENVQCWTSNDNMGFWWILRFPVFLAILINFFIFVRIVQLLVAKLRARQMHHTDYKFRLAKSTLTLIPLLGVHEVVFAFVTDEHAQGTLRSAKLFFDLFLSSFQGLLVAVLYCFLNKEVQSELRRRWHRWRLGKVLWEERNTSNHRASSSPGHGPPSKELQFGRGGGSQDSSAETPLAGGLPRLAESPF

SMILES	Ki (human glucagon receptor [1]) [nM]	Kb (human glucagon receptor [2]) [nM]
CC1(C)CC(C(Nc2ccc(-n3cnc(C(F)(F)F)c3)nc2)c2ccc(C(=O)NCCC(=O)O)cc2)C1 (stereo not shown) [Example 188, (+\−)-3-(4-((3,3-dimethylcyclobutyl)(6-(4-(trifluoromethyl)-1H-imidazol-1-yl)pyridin-3-ylamino)methyl)benzamido)propanoic acid]	42.2	106
CCCC(Nc1ccc(C(=O)NCCC(=O)O)cn1)c1ccc(-n2cc(C(F)(F)F)cn2)nc1 (stereo not shown) [Example 190, (+\−)-3-(6-(1-(6-(4-(trifluoromethyl)-1H-pyrazol-1-yl)pyridin-3-yl)butylamino)nicotinamido)propanoic acid]	399	978
O=C(O)CCNC(=O)c1ccc(C(Nc2cnc(-n3cnc(C(F)(F)F)c3)nc2)C2CCCC2)cc1 (stereo not shown) [Example 193, 3-(4-(cyclopentyl(2-(4-(trifluoromethyl)-1H-imidazol-1-yl)pyrimidin-5-ylamino)methyl)benzamido)propanoic acid]	44.7	84.1

The next lines start with the values.

Ki (human glucagon receptor [1]) [nM]	Kb (human glucagon receptor [2]) [nM]	SMILES
47.8	167	CCC[C@H](Oc1cc(C)c(-n2cc3ccccc3n2)c(C)c1)c1ccc(C(=O)NCCC(=O)O)cc1 [Example 187, (S)-3-(4-(1-(4-(2H-indazol-2-yl)-3,5-dimethylphenoxy)butyl)benzamido)propanoic acid]
109	370	CCCC(Oc1cc(C)c(-n2cc3ccccc3n2)c(C)c1)c1ccc(C(=O)NCCC(=O)O)cc1 (stereo not shown) [Example 189, (+\−)-3-(4-(1-(4-(2H-indazol-2-yl)-3,5-dimethylphenoxy)butyl)benzamido)propanoic acid]
